Changes are numbered by the printed parent chain.
Experiments:
Type in all cases: biochemical
[1] = target: T1, Zea mays EPSPS, native, SEQ ID NO:2 (Zea mays, UniProt O24566); assay: Rapid two-rate method for (kcat/KM)*KI (30 uM PEP, with or without 1 mM glyphosate), native maize; details: Zm native, [E] 0.007 uM, [Gly] 0.5 uM
T1 construct: E. coli BL21(DE3), Ni-NTA purified
T1 sequence (O24566 with tags, fused parts or gaps): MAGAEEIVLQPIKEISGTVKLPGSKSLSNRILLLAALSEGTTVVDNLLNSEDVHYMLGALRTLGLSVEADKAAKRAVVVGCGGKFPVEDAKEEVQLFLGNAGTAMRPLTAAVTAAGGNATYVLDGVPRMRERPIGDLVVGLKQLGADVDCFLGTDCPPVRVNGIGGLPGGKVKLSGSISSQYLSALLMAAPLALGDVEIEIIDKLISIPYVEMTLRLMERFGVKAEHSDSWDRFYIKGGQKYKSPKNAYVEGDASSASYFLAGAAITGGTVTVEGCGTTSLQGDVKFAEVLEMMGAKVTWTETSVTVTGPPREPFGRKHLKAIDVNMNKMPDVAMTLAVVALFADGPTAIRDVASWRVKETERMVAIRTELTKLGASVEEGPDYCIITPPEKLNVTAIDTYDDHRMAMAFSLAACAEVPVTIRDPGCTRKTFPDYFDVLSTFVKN
Source text: In the Michaelis-Menten equation for steady state reaction velocity with competitive inhibition, the term (kcat/KM)*KI cannot be isolated due to the KM and [S] terms in the denominator. However, if two rate measurements are made at different inhibitor concentrations, those terms can be eliminated by subtraction and (kcat/KM)*KI isolated, as follows:
[formula] where v0 and v1 are initial velocities without and with inhibitor but at the same substrate and enzyme concentrations. Although Equations 2 and 3 are equally valid, to generate the data in Table 1, rate measurement was performed with and without inhibitor using Equation 3. Source of Reagents, Enzyme and Variants
EPSPS activity was determined by quantifying the phosphate generated by the reaction. Release of phosphate was coupled to reaction with MESG, catalyzed by purine-nucleoside phosphorylase, using standard methods. The absorbance change that occurs was monitored continuously at 360 nm, where the extinction is 11,200 M-1 cm-1, with a Spectramax plate reader (Molecular Devices). […] The enzyme concentration was adjusted so as to generate sufficient signal without exceeding the limit for linear initial reaction rates. […]
There are several practical considerations for accurately estimating (kcat/KM)*KI with the rapid method. […] Conditions can be set so that variants with a pre-determined minimal fitness level are accurately quantified. […]

[2] = target: T2, Zea mays EPSPS variant Zm-H6 (868-H6) with K246G (H6-K246G) (Zea mays, UniProt O24566, A1R/A3W/A415G/A71Q/D401G/E301S/E390G/G101A/I207L/K245G/K83R/L97C/T278A/T360S/T440Q/V437R); assay: Rapid two-rate method for (kcat/KM)*KI, H6-K246G; details: [E] 0.07 uM, [Gly] 1000 uM
T2 construct: 868-H6 plus K246G; E. coli BL21(DE3), Ni-NTA purified
T2 sequence (O24566 with tags, fused parts or gaps A1R/A3W/A71Q/K83R/L97C/G101A/I207L/K245G/T278A/E301S/T360S/E390G/D401G/A415G/V437R/T440Q): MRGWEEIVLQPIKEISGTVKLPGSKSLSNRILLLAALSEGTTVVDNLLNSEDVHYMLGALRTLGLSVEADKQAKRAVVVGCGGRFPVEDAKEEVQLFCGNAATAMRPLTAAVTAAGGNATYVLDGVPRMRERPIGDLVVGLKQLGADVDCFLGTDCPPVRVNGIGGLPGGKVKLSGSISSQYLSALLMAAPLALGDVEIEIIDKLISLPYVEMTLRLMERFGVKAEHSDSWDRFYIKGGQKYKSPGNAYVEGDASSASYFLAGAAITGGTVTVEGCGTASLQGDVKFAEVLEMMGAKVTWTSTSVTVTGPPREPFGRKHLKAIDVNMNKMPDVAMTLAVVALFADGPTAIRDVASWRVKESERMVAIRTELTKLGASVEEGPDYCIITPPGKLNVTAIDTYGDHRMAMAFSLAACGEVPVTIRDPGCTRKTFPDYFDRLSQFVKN
Source text: (§1) There are several practical considerations for accurately estimating (kcat/KM)*KI with the rapid method. […] 2) The inhibitor concentration must be adjusted so as to obtain a degree of inhibition that minimally amplifies the error in the term v0-vi in Equation 3. If inhibition is too little, v0-vi will be small, and the error in the multiplier vi×v0/(v0-vi) will be large. […] 3) Substrate concentration should be set at the approximate KM of the parental variant(s), subject to the sensitivity of the assay. High substrate concentration obscures sensitivity to the inhibitor and reduces stringency for capturing improvements in KM. Depending on the necessity for speed, there exists opportunity for customizing enzyme and inhibitor concentrations. […] The rapid method was repeated for those and obtained data that correlated better with data obtained by substrate saturation analysis. For screening purposes however, that correlation step is not necessary. Conditions can be set so that variants with a pre-determined minimal fitness level are accurately quantified.
(§2) In Table 15, parameters above the heavy line for the rapid method were obtained under standard conditions. For variants shown below the heavy line, the rapid analysis was repeated with enzyme or glyphosate concentrations adjusted as needed to generate sufficient signal within the limits for linear initial rates.

[3] = target: T3, Zea mays EPSPS variant Zm-H6 (868-H6) with A69V (H6-A69V) (Zea mays, UniProt O24566, A1R/A3W/A415G/A68V/A71Q/D401G/E301S/E390G/G101A/I207L/K83R/L97C/T278A/T360S/T440Q/V437R); assay: Rapid two-rate method for (kcat/KM)*KI, H6-A69V; details: [E] 0.07 uM, [Gly] 1000 uM
T3 sequence (O24566 with tags, fused parts or gaps A1R/A3W/A68V/A71Q/K83R/L97C/G101A/I207L/T278A/E301S/T360S/E390G/D401G/A415G/V437R/T440Q): T2 sequence (O24566 with tags, fused parts or gaps A1R/A3W/A71Q/K83R/L97C/G101A/I207L/K245G/T278A/E301S/T360S/E390G/D401G/A415G/V437R/T440Q) with A69V, G246K
Source text: as §1, §2

O=C(O)CNCP(=O)(O)O [glyphosate, N-phosphonomethylglycine]
(kcat/KM)*KI [1]: 11
(kcat/KM)*KI [2]: 3495
(kcat/KM)*KI [3]: 2977
